The numbers were not newly measured in publication PMC5915681 (PLoS ONE, 2018), which cites them from elsewhere.

Details of this series: method as in PMID 24450858, PMID 24450857.

For the compound `CC[C@H](Nc1ncnc2[nH]cnc12)c1nc2cccc(F)c2c(=O)n1-c1ccccc1` [idelalisib, Idelalisib], the side effects entry was “hepatotoxicity and gastrointestinal toxicity”.
